The results in this text go back to publication PMC12736535, “Generation and Characterization of Novel Contilisant+Tubastatin a Multitarget Small Molecules Against Glioblastoma” (Pharmaceutics, 2025).

The test system of assay [1] is MKN45 gastric cancer cells. Nature of the assay: MTT cell viability, MKN45. The conditions noted are these: Homo sapiens, MKN-45, 72 h. Format: cell-based. The method, then:
(§1) U87-MG, U251-MG and NCI-H1299 cells were purchased from ATCC, while MKN45 was obtained from the Leibniz Institute DSMZ-German Collection of Microorganisms and Cell Cultures and the RWP1 cell line was kindly provided by Dr. Francisco Real. Cells were cultured in DMEM or RPMI (Gibco, Waltham, MA, USA) supplemented with 10% FBS, 100 U/mL penicillin and streptomycin and 2 mM L-Glutamine. Patient-derived glioma neural stem cells (GNS166 and GNS179) were kindly provided by Dr. Steve Pollard. These cells were cultured in adhesion plates treated with laminin A in DMEM/F12 media (Gibco) supplemented with N2 (Gibco), B27 (Gibco), D-(+)-Glucose solution 45% (Sigma-Aldrich, Burlington, MA, USA), basic Fibroblast Growth Factor (Gibco) and epidermal growth factor (Sigma-Aldrich). Normal human astrocytes (NHAs) were purchased from ScienCell and cultured using an astrocyte medium kit (ScienCell, San Diego, CA, USA) supplemented with FBS and Astrocyte Growth Supplement (AGS). All cells were maintained at standard conditions of 37 °C, 95% humidity, 21% O2 and 5% CO2, and cultures were regularly tested for Mycoplasma.
(§2) Cells were seeded in 96-well plates at a density of 1.5 × 10^3 or 5 × 10^3 cells/well (conventional cell lines or GNS and NHAs, respectively) and incubated overnight. […] Then, absorbance at 570 nm was measured. […]

For assay [2], the system named is RWP1 pancreatic cancer cells. Nature of the assay: MTT cell viability, RWP1. The format is cell-based. The following applies: Homo sapiens, 72 h. How it is done:
as §1, §2

Assay [3] relates to HDAC6. Nature of the assay: Western blot of acetylated α-tubulin (HDAC6 target). Format: cell-based, human. The conditions noted are these: GNS166 and U87 cells. How it is done:
Sodium dodecyl sulfate–polyacrylamide gel electrophoresis was performed. Primary antibodies against HDAC1 (Abcam, Cambridge, UK) and HDAC6 (Cell Signaling, Dancers, MA, USA) and their main targets, acetylated H3 (Cell Signaling) and acetylated α-tubulin (Abcam), were used; acetylated lysine (Cell Signaling) and β-actin (Sigma-Aldrich) were used as endogenous controls. Secondary antibodies conjugated to horseradish peroxidase were anti-rabbit or anti-mouse (Cell Signaling). Proteins were detected using the iBright imaging system and NOVEX ECL Chemi Substrate or SuperSignal West Femto Maximum Sensitivity Substrate (ThermoFisher, Waltham, MA, USA).

Assay [4] relates to GNS166 cells. Nature of the assay: RNA-seq. Format: cell-based, human. The following applies: 5 µM. An excerpt: For transcriptomic analysis, total RNA was extracted and samples were sent to BGI Tech Solutions. […] Genes presenting a fold-change value ≥4 or ≤−4 and an FDR-adjusted p-value < 0.01 were defined as differentially expressed and used to perform downstream enrichment studies.

The test system of assay [5] is NHA primary human astrocytes. Nature of the assay: MTT cell viability, NHA. The following applies: Astrocyte, 72 h, non-tumor cells. The format is cell-based. The method, then:
as §1, §2

The target in assay [6] is AChE (Homo sapiens, UniProt P22303). Nature of the assay: AChE inhibition, Ellman's colorimetric method. The format is biochemical. The conditions noted are these: read-out: ChE inhibition AChE %. The method, then: The inhibitory capacity of the compounds on ChEs was assessed using Ellman’s colorimetric method. Briefly, an inhibitor solution containing 10 µM of the MSMs and 0.3 mM DTNB was incubated for 20 min with the enzyme solution ([…]) at 37 °C. […] Inhibition percentages were calculated from these values. […] Further, enzyme kinetics were studied using different substrate and inhibitor concentrations. Results were represented in a Lineweaver–Burk plot using GraphPad Prism, and the constant of inhibition (Ki) was estimated from the point at which the line cuts the x-axis in the secondary plot.
Chain of AChE (P22303 32-614): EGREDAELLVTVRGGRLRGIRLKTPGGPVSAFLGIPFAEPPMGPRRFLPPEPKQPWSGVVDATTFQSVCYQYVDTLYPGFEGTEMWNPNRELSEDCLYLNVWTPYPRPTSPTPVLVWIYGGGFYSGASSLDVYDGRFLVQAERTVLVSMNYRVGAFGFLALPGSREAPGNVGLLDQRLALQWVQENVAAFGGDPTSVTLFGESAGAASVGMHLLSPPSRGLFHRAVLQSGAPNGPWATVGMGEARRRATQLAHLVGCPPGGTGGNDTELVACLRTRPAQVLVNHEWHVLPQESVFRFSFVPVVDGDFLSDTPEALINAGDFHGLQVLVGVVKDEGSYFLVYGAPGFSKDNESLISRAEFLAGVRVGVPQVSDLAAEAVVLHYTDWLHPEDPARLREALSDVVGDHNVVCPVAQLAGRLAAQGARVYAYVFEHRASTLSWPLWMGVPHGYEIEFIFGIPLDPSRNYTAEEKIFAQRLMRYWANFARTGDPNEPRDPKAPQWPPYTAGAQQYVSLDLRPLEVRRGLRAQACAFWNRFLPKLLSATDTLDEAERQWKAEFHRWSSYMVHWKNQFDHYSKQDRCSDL

Assay [7] has as its target BChE (Homo sapiens, UniProt P06276). Nature of the assay: BChE inhibition, Ellman's colorimetric method. Format: biochemical. The conditions noted are these: 1 μM; read-out: ChE inhibition BChE %.
The target of assay [8] is T1, recombinant hMAO-A (Homo sapiens, UniProt P21397).
T1 sequence (P21397 1-527): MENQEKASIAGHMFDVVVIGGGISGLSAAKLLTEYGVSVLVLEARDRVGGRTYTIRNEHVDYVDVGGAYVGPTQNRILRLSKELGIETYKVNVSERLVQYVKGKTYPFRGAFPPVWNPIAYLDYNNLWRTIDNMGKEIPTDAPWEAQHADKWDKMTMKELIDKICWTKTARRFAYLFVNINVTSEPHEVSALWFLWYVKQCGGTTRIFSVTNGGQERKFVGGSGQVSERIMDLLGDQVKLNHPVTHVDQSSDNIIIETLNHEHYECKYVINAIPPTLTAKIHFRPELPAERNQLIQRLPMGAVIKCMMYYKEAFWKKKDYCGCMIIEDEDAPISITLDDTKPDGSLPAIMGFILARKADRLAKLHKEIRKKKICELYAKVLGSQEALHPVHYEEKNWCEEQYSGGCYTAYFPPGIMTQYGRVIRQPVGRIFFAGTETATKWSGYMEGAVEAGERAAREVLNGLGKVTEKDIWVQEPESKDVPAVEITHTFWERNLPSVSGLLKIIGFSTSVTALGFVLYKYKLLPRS
Nature of the assay: MAO-A inhibition assay. The format is biochemical. The conditions noted are these: increasing concentrations of inhibitor. How it is done: For MAO inhibition studies, the enzyme solution (0.5 U/mL recombinant hMAO-A or 1.5 U/mL recombinant hMAO-B) was incubated with an inhibitor solution containing 10 µM of the compounds for 30 min at 37 °C. Next, horseradish peroxidase (200 U/mL), Ampliflu Red (20 mM) and tyramine hydrochloride (100 mM) (Sigma-Aldrich) were added, and absorbance was measured at 570 nm every 5 min for 30 min. The percentage of inhibition was calculated from the absorbance values.

Chain of BChE (P06276 29-602, species assumed): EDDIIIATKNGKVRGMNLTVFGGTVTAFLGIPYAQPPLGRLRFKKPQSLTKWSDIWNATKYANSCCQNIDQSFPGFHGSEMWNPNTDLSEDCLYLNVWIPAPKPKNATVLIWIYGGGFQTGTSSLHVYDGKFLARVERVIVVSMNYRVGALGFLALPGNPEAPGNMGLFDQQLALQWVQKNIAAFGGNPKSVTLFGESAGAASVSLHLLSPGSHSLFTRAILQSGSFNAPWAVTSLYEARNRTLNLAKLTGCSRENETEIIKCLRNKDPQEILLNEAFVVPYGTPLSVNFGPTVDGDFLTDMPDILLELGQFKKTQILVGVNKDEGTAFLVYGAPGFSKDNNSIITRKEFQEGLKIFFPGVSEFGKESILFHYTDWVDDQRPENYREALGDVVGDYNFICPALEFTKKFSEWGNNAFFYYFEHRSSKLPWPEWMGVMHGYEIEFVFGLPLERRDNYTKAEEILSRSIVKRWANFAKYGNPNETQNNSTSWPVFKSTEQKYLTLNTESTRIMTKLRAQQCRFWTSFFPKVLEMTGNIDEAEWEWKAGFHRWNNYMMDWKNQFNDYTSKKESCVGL

As to `CCCNNC(=O)c1ccc(S(=O)(=O)n2ccc3cc(OCCCN4CCCCC4)ccc32)cc1` [FRB44], the IC50 is 4.1 µM in assay [1], 0.7 µM in assay [2] and 41.4 µM in assay [5]. In addition, in assay [3], the “levels of acetyl-α-tubulin” value is given as “increased”. The “FC of CDKN1A (RNA-seq)” value in assay [4] was 3.53 fold. Also, the “FC of MKI67 (RNA-seq)” value in assay [4] is recorded as 0.09 fold. The inhibition at 10 µM in assay [6] stood at 24%. Further, the inhibition at 1 µM in assay [7] amounted to 20%.

As for `C#CCN1CCN(CCCOc2ccc3c(ccn3S(=O)(=O)c3ccc(C(=O)NNCCC)cc3)c2)CC1` [FRB56], the “levels of acetyl-α-tubulin” value in assay [3] was “increased”. In assay [4], the “FC of CDKN1A (RNA-seq)” value is listed as 3.12 fold and the “FC of MKI67 (RNA-seq)” value turned out to be 0.06 fold. The same compound showed an IC50 in assay [5] of 26.6 µM. The IC50 in assay [8] turned out to be 1.68 µM. Besides, the inhibition at 10 µM in assay [6] was determined as 13%. In addition, in assay [7], the inhibition at 1 µM worked out at 10%.
